According to patent US20210260055A1, “TOPICAL FORMULATIONS OF DGAT1 INHIBITORS AND THEIR METHODS OF USE” (Dermavant Sciences GmbH, priority 2018, published 2021):

What was measured:
human sebocyte cell line = test: Nile Red Neutral Lipid Accumulation Assay; format: cell-based; details: day 3 of treatment, with 1 μM T0901317 and 1 μM insulin
Procedure: This assay examines the ability of compounds to stimulate or inhibit lipid accumulation in human sebocyte cell line. Cells were seeded in tissue culture treated black clear bottom plates. Compounds were added in the presence of Liver X Receptor (LXR) agonist (T0901317) and 1 μM insulin for 3 days and 5 days. For the 5 day treatment fresh compounds were added at Day 3. After the treatment period nile red dye was added and the relative fluorescence determined for both total and neutral lipids. The neutral/total lipid ratio was calculated and obtained values were normalized to both the Cell Titer Blue viability reagent.
Protocol—Day 1: Human immortalized sebocytes were seeded at 10,000 cells/well in 96-well black, clear bottom plates in Sebocyte Growth Medium and allowed to attach overnight at 37° C. […] 3) The relative fluorescence (RFU) of the incorporated stain was determined under 2 parameters: 540ex/620em with no cutoff (Total Lipid), and 485ex/555em with a 515 cutoff (Neutral Lipid) using bottom reads. […] Cell titer blue reagent (100 was then added to each well and the cells were allowed to incubate for 2 hours at 37° C., 5% CO2. 5) The RFU value was determined at 560ex/590em with a 570 cutoff using a top read.
Data Analysis—Cell viability is presented as cell titer blue fluorescence reading (RFU) for each treatment. […] Minimum and maximum values are determined by UNT and LXR+INS controls. […]

[1] = test system: Human immortalized sebocytes; test: 14C-Acetate Sebocyte Lipid Accumulation Assay; format: cell-based; details: day 2, 16 hour treatment with 1 μM T0901317, then 1 μM insulin for 4 hours
Procedure: This assay examines the ability of compounds to modulate the incorporation of label into de novo lipid synthesis. Cells were seeded in collagen 1-coated Scintiplates. Compounds were added in the presence of Liver X Receptor (LXR) agonist (T0901317) overnight. The medium was replaced with treatments and stimulated with 1 μM insulin for 4 hours in Labeling Medium containing 14C-acetate. Label incorporation was determined by washing the cells to removed excess label and allowing the cell layer to air dry before assessing labeling through Scintiplate counting normalized to Cell Titer Blue viability reagent.
Protocol—Day 1: Human immortalized sebocytes were seeded at 10,000 cells/well in a 96-well white, clear bottom collagen 1-coated Scintiplate in Sebocyte Growth Medium and allowed to attach overnight at 37° C. Day 2: Medium was refreshed by removing seeding medium and adding fresh Sebocyte Growth Medium. […] 3) Plates were read at Ex. 560 Em.590 with a cutoff of 570 nm for CTB signal. […] 5) 14C-acetate labeling was determined by scintillation counting in a MicroBeta TriLux Scintillation Counter.
Data analysis—Cell viability is presented as cell titer blue fluorescence reading (RFU) for each treatment. […] The percent of LXR agonist+Insulin-stimulated lipogenesis was calculated by taking the ratio of each CPM measure over the corresponding cell titer blue measure. […]

| Compound | IC50 (human sebocyte cell line; Homo sapiens, 72 h) [µM] | IC50 ([1]; Homo sapiens) [µM] | IC50 (human sebocyte cell line) [µM] | IC50 [1] [µM] |
| --- | --- | --- | --- | --- |
| Cc1nc(C)c(-c2ccc([C@H]3CC[C@H](CC(=O)O)CC3)cc2)nc1C(N)=O [DMVT-503, 2-((1R,4R)-4-(4-(6-carbamoyl-3,5-dimethylpyrazin-2-yl)phenyl)cyclohexyl)acetic acid] | 0.0252 | 0.0496 | – | – |
| CC1=C(/C=C/C(C)=C/C=C/C(C)=C\C(=O)O)C(C)(C)CCC1 [Mix 13-cis-RA, 13-cis-retinoic Acid, reference compound] | – | – | 0.829 | 0.333 |
